Results reported in ChEMBL document CHEMBL1201862, “PubChem BioAssay data set” (2004).
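Growth conditions: 96-well plates. Treatment: test compound, 48 hours, 5 concentrations. Analysis: linear interpolation between bracketing concentrations; unreached endpoints set to highest concentration. Here, GI50 denotes the concentration required for 50% inhibition of growth.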 Calls of active or inactive are those of the source. Rule as the data show it: active = GI50 up to about 1.1 µM and inactive = higher.

Columns and labels:
Assay in all cases: NCI tumour cell line growth inhibition, 48 h
SNB-75 = system: SNB-75
UO-31 = system: UO-31
SF-295 = system: SF-295
SF-268 = system: SF-268
BT-549 = system: BT-549
HL-60 = system: HL-60
M14 = system: M14
CCRF-CEM = system: CCRF-CEM
OVCAR-4 = system: OVCAR-4
SK-MEL-2 = system: SK-MEL-2
SW-620 = system: SW-620
NCI-H23 = system: NCI-H23
PC-3 = system: PC-3
DU-145 = system: DU-145
SN12C = system: SN12C
TK-10 = system: TK-10
786-0 = system: 786-0
MDA-N = system: MDA-N
KM12 = system: KM12

Structure (SMILES) | GI50 (SNB-75) | GI50 (UO-31) | GI50 (SF-295) | GI50 (SF-268) | GI50 (BT-549) | GI50 (HL-60) | GI50 (M14) | GI50 (CCRF-CEM) | GI50 (OVCAR-4) | GI50 (SK-MEL-2) | GI50 (SW-620) | GI50 (NCI-H23) | GI50 (PC-3) | GI50 (DU-145) | GI50 (SN12C) | GI50 (TK-10) | GI50 (786-0) | GI50 (MDA-N) | GI50 (KM12)
O=C1CCC(Cc2ccc(Cl)cc2Cl)C(=O)N1 (stereo not given) | 64.6 µM (inactive) | 83.6 µM (inactive) | > 100 µM (inactive) | 82.4 µM (inactive) | 28.6 µM (inactive) | > 100 µM (inactive) | > 100 µM (inactive) | > 100 µM (inactive) | > 100 µM (inactive) | > 100 µM (inactive) | > 100 µM (inactive) | > 100 µM (inactive) | > 100 µM (inactive) | > 100 µM (inactive) | > 100 µM (inactive) | > 100 µM (inactive) | > 100 µM (inactive) | – | –
CC1=CC[C@@H]2[C@@H](CC[C@@]2(C)O)C(C)(C)[C@H]1CC[C@@H]1[C@@]2(C)CC[C@@H](O)C(C)(C)O[C@@H]2CC[C@]1(C)O | – | 17 µM (inactive) | 33.1 µM (inactive) | – | 18.4 µM (inactive) | 21.4 µM (inactive) | 22.5 µM (inactive) | > 10 µM (inactive) | 37.2 µM (inactive) | 34 µM (inactive) | 31.8 µM (inactive) | 24.5 µM (inactive) | 40.6 µM (inactive) | 36.3 µM (inactive) | 24.9 µM (inactive) | 35.6 µM (inactive) | 18.3 µM (inactive) | 22.5 µM (inactive) | –
Cc1nc2cccc([N+](=O)[O-])c2c(NCCCN(C)C)c1C | 49.7 µM (inactive) | > 100 µM (inactive) | 36.6 µM (inactive) | > 77.3 µM (inactive) | – | 11 µM (inactive) | 35.5 µM (inactive) | 21.3 µM (inactive) | 17.3 µM (inactive) | > 51.3 µM (inactive) | 29.4 µM (inactive) | 28.1 µM (inactive) | 17.8 µM (inactive) | 78.2 µM (inactive) | 11.5 µM (inactive) | > 40.9 µM (inactive) | > 61.5 µM (inactive) | 26.7 µM (inactive) | 34.6 µM (inactive)
O=C(CC(C(=O)c1ccsc1)c1cccs1)c1ccsc1 (stereo not given) | 27.4 µM (inactive) | 25.8 µM (inactive) | 43.7 µM (inactive) | 85.9 µM (inactive) | – | 31.8 µM (inactive) | 56 µM (inactive) | 15.2 µM (inactive) | 73.5 µM (inactive) | 94 µM (inactive) | > 100 µM (inactive) | 32.6 µM (inactive) | 28.5 µM (inactive) | 75.7 µM (inactive) | 65.6 µM (inactive) | > 100 µM (inactive) | > 100 µM (inactive) | 30.1 µM (inactive) | 31.5 µM (inactive)
CCCCOC(=O)NC(Nc1cccc(C(F)(F)F)c1)(C(F)(F)F)C(F)(F)F | 33.6 µM (inactive) | 46.5 µM (inactive) | 26.6 µM (inactive) | 60 µM (inactive) | – | 23.4 µM (inactive) | 47.3 µM (inactive) | 29.6 µM (inactive) | 99.8 µM (inactive) | 35.5 µM (inactive) | 64.3 µM (inactive) | 50.8 µM (inactive) | 68.7 µM (inactive) | > 100 µM (inactive) | 68.7 µM (inactive) | 71.1 µM (inactive) | 84.1 µM (inactive) | 41.4 µM (inactive) | 75.9 µM (inactive)
CC1CC[C@@]2(OC1)OC1C[C@H]3[C@@H]4CCC5CC(O)CC[C@]5(C)[C@H]4C/C(=N\N(C)C)[C@]3(C)C1[C@@H]2C (stereo not given in full) | – | 33.5 µM (inactive) | – | 31.1 µM (inactive) | 29.4 µM (inactive) | 22.2 µM (inactive) | 32.3 µM (inactive) | 37.8 µM (inactive) | 38.3 µM (inactive) | 20.5 µM (inactive) | 40.3 µM (inactive) | 20.3 µM (inactive) | 25.6 µM (inactive) | 21.8 µM (inactive) | 24.8 µM (inactive) | 29.2 µM (inactive) | 20.3 µM (inactive) | 19.9 µM (inactive) | 25.5 µM (inactive)
CCOc1ccc2c(c1)NC(=O)C(C1OC(c3ccccc3)=CC1=O)S2 (stereo not given) | – | 29.3 µM (inactive) | 27 µM (inactive) | 27.5 µM (inactive) | 32.1 µM (inactive) | 44.8 µM (inactive) | 48.2 µM (inactive) | 1.9 µM (inactive) | – | 40.1 µM (inactive) | 33.4 µM (inactive) | 28.2 µM (inactive) | 13.8 µM (inactive) | 38.5 µM (inactive) | 26.7 µM (inactive) | 43.7 µM (inactive) | 33.3 µM (inactive) | 25.1 µM (inactive) | 23.9 µM (inactive)
CCCCOC(=O)C(=O)C(CCC(=O)c1ccc(C)cc1)C(=O)C=C(C)C (stereo not given) | > 100 µM (inactive) | > 100 µM (inactive) | > 100 µM (inactive) | > 100 µM (inactive) | > 100 µM (inactive) | > 100 µM (inactive) | > 100 µM (inactive) | > 100 µM (inactive) | > 100 µM (inactive) | > 100 µM (inactive) | > 100 µM (inactive) | > 100 µM (inactive) | > 100 µM (inactive) | – | > 100 µM (inactive) | > 100 µM (inactive) | > 100 µM (inactive) | > 100 µM (inactive) | > 100 µM (inactive)
NCCC(N)C(=O)O (stereo not given) | – | > 100 µM (inactive) | > 100 µM (inactive) | > 100 µM (inactive) | > 100 µM (inactive) | > 100 µM (inactive) | > 100 µM (inactive) | > 100 µM (inactive) | > 100 µM (inactive) | > 100 µM (inactive) | > 100 µM (inactive) | > 100 µM (inactive) | > 100 µM (inactive) | > 100 µM (inactive) | > 100 µM (inactive) | > 100 µM (inactive) | > 100 µM (inactive) | > 100 µM (inactive) | > 100 µM (inactive)
CNC(=S)NNc1ncnc2c1c(-c1ccc(Cl)cc1)cn2-c1ccc(C)cc1 | – | 10.9 µM (inactive) | 6.05 µM (inactive) | 10.2 µM (inactive) | 14.2 µM (inactive) | 2.81 µM (inactive) | 12.6 µM (inactive) | 0.897 µM (active) | 15.6 µM (inactive) | 13.6 µM (inactive) | 6.67 µM (inactive) | 13.2 µM (inactive) | 5.45 µM (inactive) | 14.8 µM (inactive) | 11.1 µM (inactive) | 18.8 µM (inactive) | 9.18 µM (inactive) | 8.61 µM (inactive) | 7.71 µM (inactive)
CSC(=S)NN=C1CCCCC1 | 50.6 µM (inactive) | > 100 µM (inactive) | 28.4 µM (inactive) | 38.5 µM (inactive) | 45.2 µM (inactive) | – | 13.6 µM (inactive) | 26.1 µM (inactive) | 34.3 µM (inactive) | 52.6 µM (inactive) | 48.2 µM (inactive) | 29.9 µM (inactive) | 30.8 µM (inactive) | 27.4 µM (inactive) | 24.4 µM (inactive) | 24.9 µM (inactive) | 37.3 µM (inactive) | – | 28.7 µM (inactive)
CN(C)/C=C/c1ccncc1 | – | > 100 µM (inactive) | > 100 µM (inactive) | > 100 µM (inactive) | > 100 µM (inactive) | – | > 100 µM (inactive) | 48.6 µM (inactive) | > 100 µM (inactive) | > 100 µM (inactive) | > 100 µM (inactive) | > 100 µM (inactive) | > 100 µM (inactive) | > 100 µM (inactive) | > 100 µM (inactive) | > 100 µM (inactive) | > 100 µM (inactive) | > 100 µM (inactive) | > 100 µM (inactive)
CC(=O)c1sc(Nc2ccc(Cl)c(Cl)c2)nc1C | 54.1 µM (inactive) | > 100 µM (inactive) | 35.1 µM (inactive) | > 100 µM (inactive) | > 100 µM (inactive) | – | – | – | > 100 µM (inactive) | – | > 100 µM (inactive) | > 100 µM (inactive) | – | > 100 µM (inactive) | > 100 µM (inactive) | > 100 µM (inactive) | > 100 µM (inactive) | > 100 µM (inactive) | 65.2 µM (inactive)
CCOC(=O)C1=C(C)NC(=O)NC1c1ccc(N(CCCl)CCCl)cc1Cl (stereo not given) | 14.9 µM (inactive) | 14.3 µM (inactive) | 15.8 µM (inactive) | 15.5 µM (inactive) | 15.5 µM (inactive) | 1.73 µM (inactive) | 15.8 µM (inactive) | – | 17.2 µM (inactive) | 16.3 µM (inactive) | 17.9 µM (inactive) | 18.7 µM (inactive) | 15.2 µM (inactive) | 18.2 µM (inactive) | 16.3 µM (inactive) | 18.3 µM (inactive) | 15.8 µM (inactive) | – | 19.7 µM (inactive)
O=C(c1ccc([N+](=O)[O-])cc1)C(Br)C(Br)c1ccnc2ccccc12 (stereo not given) | 4.06 µM (inactive) | 1.77 µM (inactive) | 9.06 µM (inactive) | 13 µM (inactive) | 7.59 µM (inactive) | 2.8 µM (inactive) | 2.8 µM (inactive) | 0.352 µM (active) | 11.7 µM (inactive) | 12.6 µM (inactive) | 2.09 µM (inactive) | 2.55 µM (inactive) | 7.29 µM (inactive) | 11.8 µM (inactive) | 4.46 µM (inactive) | 4.58 µM (inactive) | 2.54 µM (inactive) | – | 1.91 µM (inactive)
COc1cc(-c2cc(=O)c3c(OC)c(OC)c(OC)c(OC)c3o2)cc(OC)c1OC [HEPATAMETHOXYFLAVONE] | 26.4 µM (inactive) | 7.38 µM (inactive) | 28.1 µM (inactive) | 32.9 µM (inactive) | 48.6 µM (inactive) | 15 µM (inactive) | 45.7 µM (inactive) | 30.5 µM (inactive) | 32.4 µM (inactive) | 27.9 µM (inactive) | 55 µM (inactive) | 41.8 µM (inactive) | – | 45.5 µM (inactive) | 43.6 µM (inactive) | 44.4 µM (inactive) | 58.9 µM (inactive) | 42.7 µM (inactive) | –
